Experimental findings from ChEMBL document CHEMBL1128002, “Selective inhibitors of protein kinase C in a model of graft-vs-host disease” (Bioorg Med Chem Lett, 1994) are described below.

The nature of experiment [1]: (§1) Inhibitory activity against protein kinase C from Jurkat cells. It is filed as cell-based.
Experiment [2] is filed under the species Rattus norvegicus. Description: (§2) Inhibitory activity against graft vs host disease in rat. It is filed as functional.
Experiment [3] is filed under the species Rattus norvegicus. Described as §2. It is filed as functional, organism-based.
Experiment [4] in a line: as §1. The arrangement: concentration or dose not given beside the values. The class given is cell-based. The note with it: dose or concentration not given here.

The IC50 is the concentration at which inhibition is half-maximal. The Inhibition is the change of the read-out against control, counted positive when it falls. As for `O=C1ON=C(c2cccs2)/C1=C/c1ccc(O)c(O)c1`, the results for the IC50 (in experiment [1]; in the experiment listed under Rattus norvegicus [3]) were 3.5 µM and 3.4 µM, respectively. Besides, the Inhibition in the experiment filed under Rattus norvegicus [2] came to 87%.

What is called inhibition is the percentage by which the read-out fell short of the control. In the case of `O=C1ON=C(c2cccs2)/C1=C/c1ccc(F)cc1`, the IC50 in experiment [1] came to 8.8 µM; in the experiment listed under Rattus norvegicus [3] it was 4.8 µM. Further, the Inhibition in the experiment listed under Rattus norvegicus [2] was 92%. In addition, the inhibition in experiment [4] came out at 98%.

`Nc1ccc(C2=NOC(=O)/C2=C\c2cccs2)cc1` returned an inhibition in experiment [4] of 0%.

Regarding `O=C1ON=C(c2cccs2)/C1=C/c1cccc(O)c1`, half-maximal inhibition in experiment [1] (IC50) required 9.9 µM. In addition, the Inhibition in the experiment listed under Rattus norvegicus [2] was determined as 58%.

In experiment [1], `COc1cc(/C=C2\C(=O)ON=C2c2cccs2)cc(OC)c1O` displayed an IC50 of 11 µM. Also, the Inhibition in the experiment listed under Rattus norvegicus [2] was found to be 72%.

As for `O=C1ON=C(c2cccs2)/C1=C/c1ccsc1`, the results for the IC50 (in experiment [1]; in the experiment filed under Rattus norvegicus [3]) were 2.9 µM and 3 µM, respectively. The Inhibition in the experiment listed under Rattus norvegicus [2] was 95%. This compound also gave an inhibition in experiment [4] of 100%.

`O=C1ON=C(c2ccc([N+](=O)[O-])cc2)/C1=C/c1cccs1` displayed an inhibition in experiment [4] of 0%.

On to `Oc1onc(-c2cccs2)c1/C=C1\C=CC=N1`, for which, in experiment [4], the inhibition worked out at 8.9%.

As to `Cc1cc(O)cc(C)c1/C=C1\C(=O)ON=C1c1cccs1`, the values for the IC50 (in experiment [1]; in the experiment listed under Rattus norvegicus [3]) were 5.3 µM and 1.6 µM, respectively. The Inhibition in the experiment filed under Rattus norvegicus [2] was 88%. This compound also registered an inhibition in experiment [4] of 78%.

On to `O=C1ON=C(c2ccccc2)/C1=C/c1ccco1`, for which the IC50 in experiment [1] stood at 0.9 µM; in the experiment listed under Rattus norvegicus [3], 2.9 µM. Moreover, in the experiment listed under Rattus norvegicus [2], the Inhibition came out at 89%. Also, the inhibition in experiment [4] worked out at 84%.

Turning to `Cn1cc(/C=C2\C(=O)ON=C2c2cccs2)c2ccccc21`, the inhibition in experiment [4] was 21%.

Take `O=C(O)COc1ccc(/C=C2\C(=O)ON=C2c2cccs2)cc1`: the IC50 in experiment [1] came to 8.2 µM; in the experiment filed under Rattus norvegicus [3] it was 100 µM. The Inhibition in the experiment filed under Rattus norvegicus [2] is -7%.

`O=C1ON=C(c2cccs2)/C1=C/c1ccc(Br)cc1` came in with an IC50 in experiment [1] of 84 µM. The Inhibition in the experiment filed under Rattus norvegicus [2] came out at 91%. Further, in experiment [4], the inhibition worked out at 100%.

`COc1ccc(/C=C2\C(=O)ON=C2c2cccs2)c(OC)c1` came in with an IC50 in experiment [1] above 100 µM. Further, in experiment [4], the inhibition was 35%.

On to `COc1cc(/C=C2\C(=O)ON=C2c2cccs2)ccc1OC(C)=O`, for which inhibition in experiment [1] was half-maximal at 11 µM (IC50). Also, the Inhibition in the experiment listed under Rattus norvegicus [2] turned out to be 43%. The compound further displayed an inhibition in experiment [4] of 82%.

As to `O=C1ON=C(c2cccs2)/C1=C/c1ccccc1O`, the IC50 in experiment [1] was 5.5 µM; in the experiment listed under Rattus norvegicus [3], 5.7 µM. Further, in the experiment listed under Rattus norvegicus [2], the Inhibition was found to be 87%.

For the compound `O=C1ON=C(c2cccs2)/C1=C/c1cccc(Cl)c1`, the IC50 in experiment [1] came to 23 µM. In experiment [4], this compound had an inhibition of 24%.

Turning to `CC(=O)Oc1ccc(/C=C2\C(=O)ON=C2c2cccs2)cc1`, the figures for the IC50 (in experiment [1]; in the experiment filed under Rattus norvegicus [3]) were 11 µM and 4.5 µM, respectively. Also, the Inhibition in the experiment filed under Rattus norvegicus [2] was determined as 65%. Also, the inhibition in experiment [4] came out at 81%.

In experiment [1], `COc1cccc(/C=C2\C(=O)ON=C2c2cccs2)c1` had an IC50 of 22 µM. Moreover, the Inhibition in the experiment listed under Rattus norvegicus [2] stood at 66%. This compound also gave an inhibition in experiment [4] of 65%.

For `COc1ccc(OC)c(C2=NOC(=O)/C2=C\c2cccs2)c1`, the IC50 in experiment [1] was 1.9 µM; in the experiment filed under Rattus norvegicus [3], 7.9 µM. For the same compound, the Inhibition in the experiment listed under Rattus norvegicus [2] is listed as 59%. The compound also had an inhibition in experiment [4] of 100%.

In the case of `O=C1ON=C(c2cccs2)/C1=C/c1ccc(Cl)cc1`, the IC50 in experiment [1] was found to be 11 µM; in the experiment listed under Rattus norvegicus [3], 6.2 µM. Further, the Inhibition in the experiment listed under Rattus norvegicus [2] is reported as 71%. The compound also registered an inhibition in experiment [4] of 82%.

`O=C1ON=C(c2ccccc2O)/C1=C/c1cccs1` returned an IC50 in experiment [1] of 25 µM. Moreover, in the experiment filed under Rattus norvegicus [2], the Inhibition was 20%.

In the case of `O=C1ON=C(c2cccs2)/C1=C/c1ccccc1`, the IC50 in experiment [1] was found to be 15 µM; in the experiment listed under Rattus norvegicus [3] it was 4.4 µM. The Inhibition in the experiment filed under Rattus norvegicus [2] is listed as 88%. Besides, the inhibition in experiment [4] was 81%.

On to `Cc1cc(/C=C2\C(=O)ON=C2c2cccs2)cc(C)c1O`, for which the IC50 in experiment [1] came to 2.5 µM; in the experiment listed under Rattus norvegicus [3], 2.6 µM.

Consider `O=C1ON=C(c2cccs2)/C1=C/c1ccoc1`, for which the values for the IC50 (in experiment [1]; in the experiment filed under Rattus norvegicus [3]) were 1.7 µM and 3.6 µM, respectively. The Inhibition in the experiment listed under Rattus norvegicus [2] turned out to be 94%. In experiment [4], the inhibition came out at 100%.

`O=C1ON=C(c2cccs2)/C1=C/c1ccc(O)cc1`: the IC50 in experiment [1] turned out to be 3.5 µM; in the experiment filed under Rattus norvegicus [3], 4.2 µM. The Inhibition in the experiment filed under Rattus norvegicus [2] came out at 87%. In experiment [4], this compound yielded an inhibition of 93%.

In the case of `O=C1ON=C(c2cccs2)C1=CC=Cc1ccccc1`, the results for the IC50 (in experiment [1]; in the experiment filed under Rattus norvegicus [3]) were 1 µM and 3 µM, respectively. Also, the Inhibition in the experiment filed under Rattus norvegicus [2] is on record as 93%.

`CC(C)(C)c1cc(/C=C2\C(=O)ON=C2c2cccs2)cc(C(C)(C)C)c1O`: in experiment [1], the IC50 worked out at 35 µM.

`Oc1onc(-c2cccs2)c1/C=C1/C=Nc2ccccc21` yielded an inhibition in experiment [4] of 48%.

Turning to `COc1ccccc1C1=NOC(=O)/C1=C\c1cccs1`, the IC50 turned out to be 1.2 µM in experiment [1] and 7.1 µM in the experiment filed under Rattus norvegicus [3]. In addition, the Inhibition in the experiment filed under Rattus norvegicus [2] is on record as 66%. The inhibition in experiment [4] is 100%.

The compound `CC1=CC(C)=N/C1=C/c1c(-c2cccs2)noc1O` had an inhibition in experiment [4] of 19%.

As for `COc1ccc(C2=NOC(=O)/C2=C\c2cccs2)cc1`, the IC50 was determined as 0.7 µM in experiment [1] and 11 µM in the experiment filed under Rattus norvegicus [3]. In the experiment filed under Rattus norvegicus [2], the Inhibition is 44%. This compound also showed an inhibition in experiment [4] of 100%.

On to `O=C1ON=C(c2cccs2)/C1=C/c1ccco1`, for which the IC50 turned out to be 1.4 µM in experiment [1] and 5.8 µM in the experiment filed under Rattus norvegicus [3]. In the experiment listed under Rattus norvegicus [2], the Inhibition is 88%. The compound further returned an inhibition in experiment [4] of 100%.

As to `O=C1ON=C(c2ccccc2)/C1=C/c1ccccc1`, the IC50 in experiment [1] came to 14 µM.

With `O=C1ON=C(c2cccs2)/C1=C/c1cccs1`, the IC50 was determined as 1 µM in experiment [1] and 3.7 µM in the experiment listed under Rattus norvegicus [3]. Also, in the experiment listed under Rattus norvegicus [2], the Inhibition came out at 97%. For the same compound, the inhibition in experiment [4] came to 100%.

In the case of `COc1ccc(/C=C2\C(=O)ON=C2c2cccs2)cc1`, the IC50 in experiment [1] came to 1.2 µM; in the experiment filed under Rattus norvegicus [3] it was 2.5 µM. Further, in the experiment filed under Rattus norvegicus [2], the Inhibition is 96%. The compound also had an inhibition in experiment [4] of 89%.

`CN(C)c1ccc(/C=C2\C(=O)ON=C2c2cccs2)cc1`: the results for the IC50 (in experiment [1]; in the experiment filed under Rattus norvegicus [3]) were 2.1 µM and 4.2 µM, respectively. The Inhibition in the experiment filed under Rattus norvegicus [2] was determined as 89%. The same compound gave an inhibition in experiment [4] of 88%.
